How the values were obtained:
[1] = test system: ducksalad; test: Test C flooded paddy test; type: in vivo, Heteranthera limosa; conditions: Flood, scale 0 to 100 (0 no effect, 100 complete control), 13 to 15 days
Method in brief: (§1)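 Flooded 3 cm over soil; compound into paddy water; depth kept constant. Greenhouse 13–15 d.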

[2] = test system: rice; test: Test B flooded paddy test; type: in vivo, Oryza sativa; conditions: Flood, 250 g ai/ha; 0 to 100 scale where 0 is no effect and 100 is complete control
Method in brief: (§2)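 Scores from 0 (no effect) to 100 (complete control) are visual comparisons with controls, taken 13 to 15 days after compound was applied into floodwater 3 cm deep around 2-leaf plants.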

[3] = test system: giant foxtail; test: Test A preemergence; type: in vivo, Setaria faberii
Method in brief: (§3)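 Visual injury scored 0–100 (100 = complete control) against untreated controls about 10 days after treatment in a greenhouse. Test chemicals, formulated with surfactant in non-phytotoxic solvent, were sprayed on soil preemergence or on 2-10 cm, one- to two-leaf plants postemergence.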

[4] = test system: morningglory; test: Test A postemergence; type: in vivo, Ipomoea spp.
Method in brief: as §3

[5] = test system: corn; test: Test A postemergence; type: in vivo, Zea mays
Method in brief: as §3

[6] = test system: barnyardgrass; test: Test A preemergence; type: in vivo, Echinochloa crus-galli
Method in brief: as §3

[7] = test system: wheat; test: Test A preemergence; type: in vivo, Triticum aestivum
Method in brief: as §3

[8] = test system: sedge, umbrella; test: Test B flooded paddy test; type: in vivo, Cyperus difformis; conditions: Flood, 250 g ai/ha; 0 to 100 scale where 0 is no effect and 100 is complete control
Method in brief: as §2

[9] = test system: rice; test: Test C flooded paddy test; type: in vivo, Oryza sativa; conditions: Flood, scale 0 to 100 (0 no effect, 100 complete control), 13 to 15 days
Method in brief: as §1

[10] = test system: barnyardgrass; test: Test B flooded paddy test; type: in vivo, Echinochloa crus-galli; conditions: Flood, 250 g ai/ha; 0 to 100 scale where 0 is no effect and 100 is complete control
Method in brief: as §2

[11] = test system: wheat; test: Test A postemergence; type: in vivo, Triticum aestivum
Method in brief: as §3

[12] = test system: corn; test: Test A preemergence; type: in vivo, Zea mays
Method in brief: as §3

[13] = test system: barnyardgrass; test: Test A postemergence; type: in vivo, Echinochloa crus-galli
Method in brief: as §3

[14] = test system: large (Lg) crabgrass; test: Test A postemergence; type: in vivo, Digitaria sanguinalis
Method in brief: as §3

[15] = test system: pigweed; test: Test A postemergence; type: in vivo, Amaranthus retroflexus
Method in brief: as §3

[16] = test system: giant foxtail; test: Test A postemergence; type: in vivo, Setaria faberii
Method in brief: as §3

[17] = test system: velvetleaf; test: Test A postemergence; type: in vivo, Abutilon theophrasti
Method in brief: as §3

[18] = test system: velvetleaf; test: Test A preemergence; type: in vivo, Abutilon theophrasti
Method in brief: as §3

[19] = test system: morningglory; test: Test A preemergence; type: in vivo, Ipomoea spp.
Method in brief: as §3

[20] = test system: barnyardgrass; test: Test C flooded paddy test; type: in vivo, Echinochloa crus-galli; conditions: Flood, scale 0 to 100 (0 no effect, 100 complete control), 13 to 15 days
Method in brief: as §1

[21] = test system: pigweed; test: Test A preemergence; type: in vivo, Amaranthus retroflexus
Method in brief: as §3

[22] = test system: large (Lg) crabgrass; test: Test A preemergence; type: in vivo, Digitaria sanguinalis
Method in brief: as §3

[23] = test system: Heteranthera limosa; test: Test B flooded paddy test; type: in vivo; conditions: Flood, 250 g ai/ha; 0 to 100 scale where 0 is no effect and 100 is complete control
Method in brief: as §2

[24] = test system: sedge, umbrella; test: Test C flooded paddy test; type: in vivo, Cyperus difformis; conditions: Flood, scale 0 to 100 (0 no effect, 100 complete control), 13 to 15 days
Method in brief: as §1

[25] = 500 g ai/ha, 0 to 100 scale where 0 is no effect and 100 is complete control
[26] = 125 g ai/ha, 0 to 100 scale, 0 no effect, 100 complete control

For `C[Si](C)(C)C#Cc1cccc(Oc2ncc(Cl)cn2)c1-n1cc(Br)cn1` [Compound 293], the “Plant response rating, Ducksalad” value ([1]; 31 g ai/ha) was 30, the “Plant response rating, Ducksalad” value ([1]; 62 g ai/ha) was 40 and the “Plant response rating, Ducksalad” value ([1]; 125 g ai/ha) was 75. The “Plant response rating, Rice” value [2] was 0, the “Foxtail, Giant plant response rating (0 to 100 scale)” value ([3]; 125 g ai/ha) was 20 and the “Foxtail, Giant plant response rating” value [3, 25] was 90. The “Plant response rating, Morningglory” value [4, 26] was 10, the “Plant response rating, Morningglory” value [4, 25] was 30 and the “Plant response rating, Corn” value [5, 26] was 0. The “Plant response rating, Corn” value [5, 25] was 20, the “Barnyardgrass plant response rating (0 to 100 scale, 0 is no effect, 100 is complete control)” value ([6]; 125 g ai/ha) was 0 and the “Barnyardgrass plant response rating” value [6, 25] was 10. The “Wheat plant response rating (0 to 100 scale)” value ([7]; 125 g ai/ha) was 0, the “Wheat plant response rating” value [7, 25] was 0 and the “Plant response rating, Sedge, Umbrella” value [8] was 80. The “Plant response rating, Rice” value ([9]; 31 g ai/ha) was 0, the “Plant response rating, Rice” value ([9]; 62 g ai/ha) was 0 and the “Plant response rating, Rice” value ([9]; 125 g ai/ha) was 0. For the same molecule, the “Plant response rating, Barnyardgrass” value [10] was 0, the “Plant response rating, Wheat” value [11, 26] was 0 and the “Plant response rating, Wheat” value [11, 25] was 0. The “Corn plant response rating (0 to 100 scale)” value ([12]; 125 g ai/ha) was 0, the “Corn plant response rating” value [12, 25] was 0 and the “Plant response rating, Barnyardgrass” value [13, 26] was 10. For the same molecule, the “Plant response rating, Barnyardgrass” value [13, 25] was 10, the “Plant response rating, Crabgrass, Large” value [14, 26] was 20 and the “Plant response rating, Crabgrass, Large” value [14, 25] was 30. The “Plant response rating, Pigweed” value [15, 26] was 60, the “Plant response rating, Pigweed” value [15, 25] was 90 and the “Plant response rating, Foxtail, Giant” value [16, 26] was 20. For the same molecule, the “Plant response rating, Foxtail, Giant” value [16, 25] was 30, the “Plant response rating, Velvetleaf” value [17, 26] was 60 and the “Plant response rating, Velvetleaf” value [17, 25] was 80. For the same molecule, the “Velvetleaf plant response rating (0 to 100 scale)” value ([18]; 125 g ai/ha) was 0, the “Velvetleaf plant response rating” value [18, 25] was 0 and the “Morningglory plant response rating (0 to 100 scale)” value ([19]; 125 g ai/ha) was 0. The “Morningglory plant response rating” value [19, 25] was 0, the “Plant response rating, Barnyardgrass” value ([20]; 31 g ai/ha) was 0 and the “Plant response rating, Barnyardgrass” value ([20]; 62 g ai/ha) was 0. The “Plant response rating, Barnyardgrass” value ([20]; 125 g ai/ha) was 0, the “Pigweed plant response rating (0 to 100 scale)” value ([21]; 125 g ai/ha) was 20 and the “Pigweed plant response rating” value [21, 25] was 80. For the same molecule, the “Crabgrass, Large plant response rating (0 to 100 scale)” value ([22]; 125 g ai/ha) was 40, the “Crabgrass, Large plant response rating” value [22, 25] was 90 and the “Plant response rating, Ducksalad” value [23] was 80. The “Plant response rating, Sedge, Umbrella” value ([24]; 31 g ai/ha) was 60, the “Plant response rating, Sedge, Umbrella” value ([24]; 62 g ai/ha) was 75 and the “Plant response rating, Sedge, Umbrella” value ([24]; 125 g ai/ha) was 85.
